Results taken from the SangsterLogP compilation.

Assay: from Savola, J.; Ruskoaho, H.; Salonen, J.; Puurunen, J.; Karjalainen, A.; Kurkela, K.; Karki, N. (1988). Cardiovascular and sedative alpha-adrenoceptor effects of detomidine-like arylalkylimidazoles and …
Settings: pH 7.4

Structure (SMILES) | logD
Cc1ccc(Cc2c[nH]cn2)c(C)c1 | 2.52
Cc1cccc(C)c1Cc1cnc[nH]1 | 2.54
Cc1ccc(C)c(Cc2c[nH]cn2)c1 | 2.54
Cc1cccc(Cc2c[nH]cn2)c1C | 2.5
Cc1cccc(C)c1-c1c[nH]cn1 | 2.38
Cc1ccc(Cc2c[nH]cn2)cc1C | 2.54
Cc1cccc(C)c1CCn1ccnc1 | 2.51
Cc1cccc(C)c1/C=C/c1c[nH]cn1 | 3.35
Cc1cc(C)cc(Cc2c[nH]cn2)c1 | 2.34
Cc1cccc(C)c1CCCc1c[nH]cn1 | 2.87
Cc1cccc(C)c1CCCCc1c[nH]cn1 | 3.3
Cc1ccccc1Cc1c[nH]cn1 | 2.13
Cc1cccc(C)c1CCc1ncc[nH]1 | 2.2
Cc1cccc(C)c1CCc1c[nH]cn1 | 2.73
Cc1cccc(C)c1Cc1ccccn1 | 3.48
Cc1cccc(Cc2c[nH]cn2)c1 | 2.21
